US10285981B2, “Compositions and methods for treating amyotrophic lateral sclerosis in responders” (KNOPP BIOSCIENCES LLC, priority 2013, dated 2019)
Like-named read-outs stand apart in the source and are kept apart here.

Experiments:
dogs = conditions: single oral dose, and above; cited from earlier work
rodents [1] = conditions: approximately
rodents [2] = conditions: single oral dose, and above; cited from earlier work
monkeys = conditions: single oral dose; cited from earlier work
humans = conditions: cited from earlier work
subjects with ALS [3] = conditions: larger Phase III study; cited from earlier work
subjects with ALS [4] = system: subjects with ALS
From the text: Subjects with possible, probable, probable laboratory-supported, or definite ALS as defined by the El Escorial criteria who had ALS symptoms for ≤24 months at the time of entry into the study and a slow vital capacity of ≥65% of predicted were eligible to participate in this study. This study is described in more detail in the Examples.
Eligible subjects were between 18-80 years of age with a clinical diagnosis of possible, laboratory-supported probable, probable, or definite ALS, either familial or sporadic, in accordance with the revised El Escorial criteria. Subjects were required to have had onset of first ALS symptoms ≤24 months before Day 1 and an upright vital capacity of ≥65% of predicted value for age, height, and gender at screening. […] Subjects had to be able to swallow oral medications on Day 1 (FIG. 1).
Clinic visits and telephone calls/home visits may have occurred on alternating months. The primary efficacy analysis was a Combined Assessment of Function and Survival (CAFS), based on changes from baseline in the ALS Functional Rating Score-Revised (ALSFRS-R) scores or time to death using follow-up data through 12 months. […] Efficacy data was evaluated using 2-sided tests with α=0.05 for the primary and secondary endpoints. Adverse events and other safety indices were monitored throughout the study.
The primary endpoint of the method of Example 2 was the Combined Assessment of Function and Survival (CAFS), a joint-rank test that is a valid statistical approach for analyzing functional outcomes adjusted for mortality. The CAFS ranks subjects' outcomes based on both time to death and change from baseline in ALSFRS-R score using follow-up data through 12 months. CAFS is predicated on the comparison of outcomes of each subject to all other subjects in the study. A higher rank is assigned to subjects who survive versus those who die, and the change from baseline in the ALSFRS-R is used to rank each survivor. A higher CAFS ranking indicates a better global clinical outcome.
The ALSFRS-R score, VC, and McGill QoL-SIS scores were summarized by treatment group with the rate of change estimate derived from a linear mixed-effects model. Linear decline of the ALSFRS-R score over time has been shown previously. […] A mixed-model analysis was used to fit a model that included time, treatment group, and the interaction between time and treatment group simultaneously. The estimated coefficient of time, the slope, or rate of change, for each treatment group was used to test for differences between the treatment groups. Coefficient of time estimate along with its standard error was reported.

subjects with ALS [5] = conditions: for decline in levels of serum creatinine: Part One; for mean decline in serum creatinine: Week 28
From the text: Therefore, the Part 2, Week 28 visit was pre-specified as the primary time-point for all Part 2 data analyses.

subjects with ALS [6] = system: subjects with ALS; remark: listed apart in the source
From the text: Response is defined according to two criteria:
This analysis examined subgroup definitions based on both single and dual attribute criteria, and evaluated the performance of each subgroup with respect the two criteria above. To facilitate ranking of subgroups, we have defined a scoring metric which aggregates these two-dimensional scores into a single scalar called “score” in our report files. Larger scores are better: scores increase when mortality rates decrease, and when ALSFRS-R changes from baseline become more positive (i.e. score decreases are reduced). This scoring scheme is somewhat arbitrary; it merely serves to guide our maximization process and provide convenient rankings of subgroup quality. The definition of the score could certainly be altered to reflect different priorities on treatment effects with respect to mortality or disease progression. For this reason, we provide a complete spreadsheet of results, which can be re-sorted and re-ordered according to arbitrary balancing criteria.
1. Mortality for patients is defined by the value of the “end_status_study” field. Patients are deemed dead if and only if the value of this field is “DEATH”; any other value is interpreted as survival;
2. Disease symptom progression is measured in terms of the change in total ALSFRS-R score from baseline, as reported in the “change from baseline” attribute of each patient. Specifically, we take the value of “change from baseline” that is reported at the final measurement time for each patient.;
4. We impose minimum subgroup size filters on our results to exclude promising signals which arise due to sampling artifacts, or which would be too narrow for consideration in future studies. Analyses were run for minimum group sizes of both 50 patients (data not shown) and 100 patients (i.e. for a cutoff of N, we require at least N patients in that subgroup for both the treated and untreated groups).

ALS subjects [7] = conditions: even after prolonged treatment; cited from earlier work
ALS subjects [8] = conditions: human, in vivo
[9] = high-creatinine group, through 12 months

In the case of `CCCN[C@H]1CCc2nc(N)sc2C1` [pramipexole, (6S)-2-amino-4,5,6,7-tetrahydro-6-(propylamino)benzothiazole], the “dose at which vomiting occurred” value (dogs) is listed as at least 0.0007 milligrams per kilogram, the “human dose equivalent to the rodent lethal dose, 70 kilogram individual” value (rodents [1]) is listed as 500-850 milligrams and the “dose at which death occurred” value (rodents [2]) is listed as 70-105 milligrams per kilogram. The “dose at which major excitation was displayed” value (monkeys) was 3.5 milligrams per kilogram, the “maximally tolerated dose for humans” value (humans; Boehringer Ingelheim product insert for Mirapex) was 4.5 milligrams per day and the “initial single dose not tolerated” value (humans; human subjects) was “greater than 0.20 milligrams”. The “dose shown to cause somnolence” value (humans; humans, as low as) was 1.5 milligrams.

For `CC(=O)N1N=C(c2ccc(N)cc2)c2cc3c(cc2C[C@H]1C)OCO3` [talampanel], the “treatment effects in ALS” value (subjects with ALS [3]) is listed as “failed to show any treatment effects”.

For `CCCN[C@@H]1CCc2nc(N)sc2C1` [dexpramipexole, (6R)-2-amino-4,5,6,7-tetrahydro-6-(propylamino)-benzothiazole], the “ALSFRS-R score change vs placebo group (exploratory analysis with covariate adjustment)” value (subjects with ALS [4]; 300 mg group, Month 18) was “significant improvement”, the “ALSFRS-R subdomain: behaviors associated with bulbar function, decline over baseline” value (subjects with ALS [4]; 300 mg/day) was “less dramatic decline” and the “ALSFRS-R subdomain: behaviors associated with fine motor skills” value (subjects with ALS [4]; 300 mg/day) was “dose dependent improvement over baseline”. The “combined assessment of function and survival (CAFS), least square means” value (subjects with ALS [4]; high-creatinine group (baseline serum creatinine > about 72 μmol/L), 150 mg twice daily, through 12 months) was 184.86, the “slope of decline on the ALS Functional Rating Scale (Revised), least square means” value (subjects with ALS [4]; high-creatinine group, 150 mg twice daily, through 12 months) was −0.925 and the “ALSFRS-R slope of decline, improvement in least square means between treatment and placebo” value (subjects with ALS [4]; [9]) was 18%. For the same molecule, the “CAFS improvement in least square means between treatment and placebo” value (subjects with ALS [4]; [9]) was 19%, the “rate of mortality (Kaplan-Meier analysis)” value (subjects with ALS [4]; high-creatinine group, treatment group at 12 months) was 10.3% and the “functional affinity difference between pramipexole and dexpramipexole for dopamine receptors” value (dopamine receptors) was 10,000-20,000 folds. The “decline in levels of serum creatinine” value (subjects with ALS [5]; 50 mg group) was 0.05, the “decline in levels of serum creatinine” value (subjects with ALS [5]; 150 mg group) was 0.06 and the “decline in levels of serum creatinine” value (subjects with ALS [5]; 300 mg group) was 0.0. For the same molecule, the “combined assessment of function and survival (CAFS)” value (subjects with ALS [5]; Part Two, 300 mg daily dose, p=0.040) was “significantly reduced reduction”, the “mean decline in serum creatinine” value (subjects with ALS [5]; Part Two, daily dose 50 mg) was −0.12 and the “mean decline in serum creatinine” value (subjects with ALS [5]; Part Two, daily dose 300 mg) was “zero”. For the same molecule, the “relative change in the mean ALSFRS-R change from baseline, treated vs untreated” value (subjects with ALS [6]; definite diagnosis subgroup) was −8.3%, the “abs_mort_rate_change: absolute difference in mortality rate, treated vs untreated” value (subjects with ALS [6]; in vivo) was −22.6% and the “mort rate change: relative change in mortality rate, treated vs untreated” value (subjects with ALS [6]; in vivo) was −67.9%. The “mortality rate lower for treated patients” value (subjects with ALS [6]; in vivo) was 22.6 percentage points, the “score: combined score of mortality and ALSFRS-R treatment effects” value (subjects with ALS [6]; in vivo) was 0.343 and the “trtd_mort_rate: mortality rate of treated patients” value (subjects with ALS [6]; in vivo) was 10.7%. The “relative change in the mean ALSFRS-R change from baseline, treated vs untreated” value (subjects with ALS [6]; subgroup mean_pr_interval>184.5, minimum group size 100) was −20.5%, the “abs_alsfrs_change: absolute difference in mean ALSFRS-R total scores, treated vs untreated” value (subjects with ALS [6]; subgroup min_pr_interval>195) was 5.623 points and the “alsfrs change: relative change in mean ALSFRS-R change from baseline, treated vs untreated” value (subjects with ALS [6]; subgroup min_pr_interval>195, minimum group size 50) was −26.6%.

For `Nc1nc2ccc(OC(F)(F)F)cc2s1` [riluzole], the “effect on ALSFRS-R score” value (ALS subjects [7]) is given as “has not demonstrated any effect” and the “headaches reported, subjects receiving riluzole vs those not receiving riluzole” value (ALS subjects [8]) is given as “four times as many subjects”.
